Reference: ChEMBL document CHEMBL3885861, “Open TG-GATES”

Species: Rattus norvegicus
Assay: Open TG-GATES - Regimen: Single
Type: toxicity, organism-based, Sprague-Dawley
Design: regimen Single, gender Male, age 6 weeks
Settings: in vivo, po, 15 mg/kg, route gavage, dose level Low; for APTT / Bas / Eos / Fbg / Hb / Ht / Lym / MCH / MCHC / MCV / Mono / Neu / PT / Plat / RBC / Ret / WBC: tissue Blood; for KIDNEY_L / KIDNEY_R / KIDNEY_TOTAL: tissue Kidney; for LIVER: tissue Liver; for A/G / ALP / ALT / AST / BUN / CRE / Ca / Cl / DBIL / GLC / IP / K / LDH / Na / PL / RALB / TBIL / TC / TG / TP / gamma-GTP: tissue Plasma

For `CN(C)CCC=C1c2ccccc2CCc2ccccc21` [AMITRIPTYLINE], the TERMINAL_BW (3 h) was 194.5 g, the APTT (3 h) was 16.2 s and the Bas (3 h) was 0%. The Eos (3 h) was 1%, the Fbg (3 h) was 267.4 mg/dL and the Hb (3 h) was 12.8 g/dL. It also gave a Ht (3 h) of 39.3%, a Lym (3 h) of 73% and an MCH (3 h) of 21.2 pg. It also gave an MCHC (3 h) of 32.6%, an MCV (3 h) of 65 fL and a Mono (3 h) of 3%. It also gave a Neu (3 h) of 22.2%, a PT (3 h) of 16.2 s and a Plat (3 h) of 114.1 x10_4/uL. It also gave an RBC (3 h) of 604.8 x10_4/ul, a Ret (3 h) of 8.7% and a WBC (3 h) of 91.4 x10_2/uL. It also gave a KIDNEY_L (3 h) of 0.8 g, a KIDNEY_R (3 h) of 0.8 g and a KIDNEY_TOTAL (3 h) of 1.6 g. The LIVER (3 h) was 8.5 g, the A/G (3 h) was 0.8 and the ALP (3 h) was 1536.8 IU/L. It also gave an ALT (3 h) of 54.2 IU/L, an AST (3 h) of 74.4 IU/L and a BUN (3 h) of 10 mg/dL. It also gave a CRE (3 h) of 0.2 mg/dL, a Ca (3 h) of 11.1 mg/dL and a Cl (3 h) of 106.2 meq/L. The DBIL (3 h) was 0.01 mg/dL, the GLC (3 h) was 181.6 mg/dL and the IP (3 h) was 8.8 mg/dL. It also gave a K (3 h) of 4.3 meq/L, an LDH (3 h) of 83.8 IU/L and a Na (3 h) of 143 meq/L. The PL (3 h) was 142 mg/dL, the RALB (3 h) was 2.5 g/dL and the TBIL (3 h) was 0.058 mg/dL. The TC (3 h) was 80.2 mg/dL, the TG (3 h) was 52 mg/dL and the TP (3 h) was 5.4 g/dL. It also gave a gamma-GTP (3 h) of 1 IU/L, a TERMINAL_BW (6 h) of 191.5 g and an APTT (6 h) of 16 s. The Bas (6 h) was 0%, the Eos (6 h) was 1% and the Fbg (6 h) was 277.4 mg/dL. It also gave a Hb (6 h) of 13 g/dL, a Ht (6 h) of 39.9% and a Lym (6 h) of 77.4%. It also gave an MCH (6 h) of 21.1 pg, an MCHC (6 h) of 32.6% and an MCV (6 h) of 64.6 fL. For the same molecule, the Mono (6 h) was 2.6%, the Neu (6 h) was 18.4% and the PT (6 h) was 15.9 s. It also gave a Plat (6 h) of 120 x10_4/uL, an RBC (6 h) of 617.8 x10_4/ul and a Ret (6 h) of 9.4%. For the same molecule, the WBC (6 h) was 75 x10_2/uL, the KIDNEY_L (6 h) was 0.8 g and the KIDNEY_R (6 h) was 0.8 g. For the same molecule, the KIDNEY_TOTAL (6 h) was 1.6 g, the LIVER (6 h) was 7.8 g and the A/G (6 h) was 0.8. For the same molecule, the ALP (6 h) was 1444.2 IU/L, the ALT (6 h) was 46.4 IU/L and the AST (6 h) was 77.6 IU/L. The BUN (6 h) was 8.8 mg/dL, the CRE (6 h) was 0.2 mg/dL and the Ca (6 h) was 10.6 mg/dL. The Cl (6 h) was 106.6 meq/L, the DBIL (6 h) was 0.014 mg/dL and the GLC (6 h) was 175.8 mg/dL. For the same molecule, the IP (6 h) was 9.2 mg/dL, the K (6 h) was 4.2 meq/L and the LDH (6 h) was 58.4 IU/L. For the same molecule, the Na (6 h) was 143 meq/L, the PL (6 h) was 144.4 mg/dL and the RALB (6 h) was 2.4 g/dL. It also gave a TBIL (6 h) of 0.07 mg/dL, a TC (6 h) of 84.4 mg/dL and a TG (6 h) of 43.8 mg/dL. It also gave a TP (6 h) of 5.3 g/dL, a gamma-GTP (6 h) of 1 IU/L and a TERMINAL_BW (9 h) of 192 g. The APTT (9 h) was 16.6 s, the Bas (9 h) was 0% and the Eos (9 h) was 0.8%. It also gave a Fbg (9 h) of 262.6 mg/dL, a Hb (9 h) of 12.8 g/dL and a Ht (9 h) of 39.3%. The Lym (9 h) was 67.4%, the MCH (9 h) was 21.5 pg and the MCHC (9 h) was 32.6%. It also gave an MCV (9 h) of 65.8 fL, a Mono (9 h) of 2.4% and a Neu (9 h) of 29%. The PT (9 h) was 15.7 s, the Plat (9 h) was 117.7 x10_4/uL and the RBC (9 h) was 597 x10_4/ul. The Ret (9 h) was 9.3%, the WBC (9 h) was 87.8 x10_2/uL and the KIDNEY_L (9 h) was 0.9 g. For the same molecule, the KIDNEY_R (9 h) was 0.9 g, the KIDNEY_TOTAL (9 h) was 1.7 g and the LIVER (9 h) was 7.4 g. For the same molecule, the A/G (9 h) was 0.9, the ALP (9 h) was 1309.6 IU/L and the ALT (9 h) was 44.6 IU/L. For the same molecule, the AST (9 h) was 71.2 IU/L, the BUN (9 h) was 8.4 mg/dL and the CRE (9 h) was 0.2 mg/dL. It also gave a Ca (9 h) of 10.7 mg/dL, a Cl (9 h) of 106.6 meq/L and a DBIL (9 h) of 0.006 mg/dL. For the same molecule, the GLC (9 h) was 165.2 mg/dL, the IP (9 h) was 10.4 mg/dL and the K (9 h) was 3.9 meq/L. It also gave an LDH (9 h) of 69.2 IU/L, a Na (9 h) of 142.8 meq/L and a PL (9 h) of 140.4 mg/dL. The RALB (9 h) was 2.5 g/dL, the TBIL (9 h) was 0.062 mg/dL and the TC (9 h) was 78.6 mg/dL. The TG (9 h) was 33.2 mg/dL, the TP (9 h) was 5.4 g/dL and the gamma-GTP (9 h) was 1 IU/L. The TERMINAL_BW (24 h) was 206.4 g, the APTT (24 h) was 16 s and the Bas (24 h) was 0%. It also gave an Eos (24 h) of 1%, a Fbg (24 h) of 259.2 mg/dL and a Hb (24 h) of 12.8 g/dL. For the same molecule, the Ht (24 h) was 38.8%, the Lym (24 h) was 77.8% and the MCH (24 h) was 21.6 pg. For the same molecule, the MCHC (24 h) was 32.9%, the MCV (24 h) was 65.5 fL and the Mono (24 h) was 3%. It also gave a Neu (24 h) of 17.4%, a PT (24 h) of 16.4 s and a Plat (24 h) of 112.7 x10_4/uL. For the same molecule, the RBC (24 h) was 592.4 x10_4/ul, the Ret (24 h) was 8.1% and the WBC (24 h) was 89.3 x10_2/uL. The KIDNEY_L (24 h) was 0.9 g, the KIDNEY_R (24 h) was 0.9 g and the KIDNEY_TOTAL (24 h) was 1.8 g. The LIVER (24 h) was 9.4 g, the A/G (24 h) was 0.8 and the ALP (24 h) was 1812.6 IU/L. The ALT (24 h) was 52.4 IU/L, the AST (24 h) was 78.6 IU/L and the BUN (24 h) was 14 mg/dL. It also gave a CRE (24 h) of 0.2 mg/dL, a Ca (24 h) of 10.9 mg/dL and a Cl (24 h) of 107 meq/L. For the same molecule, the DBIL (24 h) was 0.018 mg/dL, the GLC (24 h) was 179.2 mg/dL and the IP (24 h) was 7.3 mg/dL. The K (24 h) was 4.2 meq/L, the LDH (24 h) was 74.2 IU/L and the Na (24 h) was 143 meq/L. It also gave a PL (24 h) of 146.8 mg/dL, an RALB (24 h) of 2.6 g/dL and a TBIL (24 h) of 0.056 mg/dL. It also gave a TC (24 h) of 77.2 mg/dL, a TG (24 h) of 82.2 mg/dL and a TP (24 h) of 5.6 g/dL. It also gave a gamma-GTP (24 h) of 1 IU/L.
